Laboratory results taken from the NIST ThermoML archive (doi:10.1016/j.jct.2015.11.012).

Experiment: xn = mol fraction of the nth substance listed
Conditions: 100 kPa, Liquid; for viscosity: Capillary tube (Ostwald / Ubbelohde) method; for speed of sound: Frequency=2 MHz, Linear variable-path acoustic interferometer; for mass density: Vibrating tube method

Nc1cccc(Cl)c1 [3-chlorobenzenamine] + NCCO
Conditions | mass density [kg/m3] | speed of sound [m/s] | viscosity [mPa·s]
303.15 K, x1 = 0.0857 | 1037.07 | 1689 | 13.56
303.15 K, x1 = 0.1749 | 1063.03 | 1674.4 | 12.66
303.15 K, x1 = 0.2679 | 1086.86 | 1658.9 | 11.72
303.15 K, x1 = 0.3619 | 1108.19 | 1642.4 | 10.77
303.15 K, x1 = 0.4597 | 1127.88 | 1624.3 | 9.773
303.15 K, x1 = 0.5607 | 1145.96 | 1604.9 | 8.747
303.15 K, x1 = 0.6649 | 1162.61 | 1584.1 | 7.685
303.15 K, x1 = 0.7726 | 1177.97 | 1562.3 | 6.586
303.15 K, x1 = 0.8835 | 1192.12 | 1540.1 | 5.451
303.15 K, x1 = 1 | 1205.32 | 1517.5 | 4.255
308.15 K, x1 = 0.0857 | 1032.99 | 1673.4 | 11.04
308.15 K, x1 = 0.1749 | 1058.89 | 1659.2 | 10.35
308.15 K, x1 = 0.2679 | 1082.69 | 1643.1 | 9.621
308.15 K, x1 = 0.3619 | 1103.96 | 1626 | 8.885
308.15 K, x1 = 0.4597 | 1123.59 | 1607.5 | 8.117
308.15 K, x1 = 0.5607 | 1141.65 | 1588.1 | 7.322
308.15 K, x1 = 0.6649 | 1158.22 | 1568.1 | 6.5
308.15 K, x1 = 0.7726 | 1173.53 | 1547.2 | 5.649
308.15 K, x1 = 0.8835 | 1187.62 | 1525.2 | 4.77
308.15 K, x1 = 1 | 1200.75 | 1501.2 | 3.842
313.15 K, x1 = 0.0857 | 1029.02 | 1658.8 | 9.049
313.15 K, x1 = 0.1749 | 1054.84 | 1643.8 | 8.509
313.15 K, x1 = 0.2679 | 1078.52 | 1626.5 | 7.944
313.15 K, x1 = 0.3619 | 1099.7 | 1608.2 | 7.37
313.15 K, x1 = 0.4597 | 1119.25 | 1588.8 | 6.771
313.15 K, x1 = 0.5607 | 1137.2 | 1568.9 | 6.151
313.15 K, x1 = 0.6649 | 1153.72 | 1548.6 | 5.51
313.15 K, x1 = 0.7726 | 1168.97 | 1527.7 | 4.846
313.15 K, x1 = 0.8835 | 1182.98 | 1505.5 | 4.157
313.15 K, x1 = 1 | 1196.02 | 1480.3 | 3.43
318.15 K, x1 = 0.0857 | 1024.4 | 1642 | 7.182
318.15 K, x1 = 0.1749 | 1050.2 | 1627.5 | 6.785
318.15 K, x1 = 0.2679 | 1073.86 | 1610.2 | 6.368
318.15 K, x1 = 0.3619 | 1095.02 | 1591.7 | 5.944
318.15 K, x1 = 0.4597 | 1114.53 | 1572.2 | 5.501
318.15 K, x1 = 0.5607 | 1132.47 | 1552.5 | 5.043
318.15 K, x1 = 0.6649 | 1149 | 1532.6 | 4.568
318.15 K, x1 = 0.7726 | 1164.23 | 1512.3 | 4.075
318.15 K, x1 = 0.8835 | 1178.23 | 1490.5 | 3.565
318.15 K, x1 = 1 | 1191.25 | 1464.8 | 3.022

Nc1cccc(Cl)c1 [3-chlorobenzenamine] + OCCc1ccccc1
Conditions | mass density [kg/m3] | speed of sound [m/s] | viscosity [mPa·s]
303.15 K, x1 = 0.0855 | 1027.23 | 1509.6 | 8.643
303.15 K, x1 = 0.1746 | 1043.06 | 1511 | 8.223
303.15 K, x1 = 0.2665 | 1059.74 | 1512.3 | 7.787
303.15 K, x1 = 0.3613 | 1077.27 | 1513.6 | 7.335
303.15 K, x1 = 0.4491 | 1093.81 | 1514.6 | 6.916
303.15 K, x1 = 0.5201 | 1107.41 | 1515.4 | 6.576
303.15 K, x1 = 0.6594 | 1134.71 | 1516.5 | 5.907
303.15 K, x1 = 0.7692 | 1156.83 | 1517 | 5.377
303.15 K, x1 = 0.8787 | 1179.49 | 1517.3 | 4.846
303.15 K, x1 = 1 | 1205.32 | 1517.5 | 4.255
308.15 K, x1 = 0.0855 | 1023.5 | 1492.2 | 6.915
308.15 K, x1 = 0.1746 | 1039.28 | 1493.6 | 6.623
308.15 K, x1 = 0.2665 | 1055.88 | 1495 | 6.319
308.15 K, x1 = 0.3613 | 1073.34 | 1496.3 | 6.005
308.15 K, x1 = 0.4491 | 1089.81 | 1497.4 | 5.712
308.15 K, x1 = 0.5201 | 1103.34 | 1498.3 | 5.473
308.15 K, x1 = 0.6594 | 1130.52 | 1499.6 | 5.005
308.15 K, x1 = 0.7692 | 1152.56 | 1500.4 | 4.632
308.15 K, x1 = 0.8787 | 1175.08 | 1500.9 | 4.259
308.15 K, x1 = 1 | 1200.75 | 1501.2 | 3.842
313.15 K, x1 = 0.0855 | 1019.67 | 1472 | 5.867
313.15 K, x1 = 0.1746 | 1035.39 | 1473.4 | 5.638
313.15 K, x1 = 0.2665 | 1051.92 | 1474.6 | 5.398
313.15 K, x1 = 0.3613 | 1069.28 | 1475.8 | 5.149
313.15 K, x1 = 0.4491 | 1085.67 | 1476.9 | 4.918
313.15 K, x1 = 0.5201 | 1099.15 | 1477.7 | 4.729
313.15 K, x1 = 0.6594 | 1126.19 | 1478.9 | 4.357
313.15 K, x1 = 0.7692 | 1148.11 | 1479.7 | 4.061
313.15 K, x1 = 0.8787 | 1170.53 | 1480.3 | 3.763
313.15 K, x1 = 1 | 1196.02 | 1480.3 | 3.43
318.15 K, x1 = 0.0855 | 1015.75 | 1457.9 | 4.827
318.15 K, x1 = 0.1746 | 1031.43 | 1459.1 | 4.659
318.15 K, x1 = 0.2665 | 1047.87 | 1460.2 | 4.483
318.15 K, x1 = 0.3613 | 1065.15 | 1461.2 | 4.3
318.15 K, x1 = 0.4491 | 1081.46 | 1462.1 | 4.129
318.15 K, x1 = 0.5201 | 1094.86 | 1462.8 | 3.989
318.15 K, x1 = 0.6594 | 1121.8 | 1463.9 | 3.714
318.15 K, x1 = 0.7692 | 1143.63 | 1464.6 | 3.494
318.15 K, x1 = 0.8787 | 1165.92 | 1464.8 | 3.272
318.15 K, x1 = 1 | 1191.25 | 1464.8 | 3.022

OCCCl [1-chloro-2-hydroxyethane] + Nc1cccc(Cl)c1
Conditions | mass density [kg/m3] | speed of sound [m/s] | viscosity [mPa·s]
303.15 K, x2 = 0 | 1192.12 | 1342.8 | 2.578
303.15 K, x2 = 0.0844 | 1194.38 | 1365.5 | 2.728
303.15 K, x2 = 0.1759 | 1196.5 | 1388.6 | 2.888
303.15 K, x2 = 0.2675 | 1198.32 | 1410 | 3.046
303.15 K, x2 = 0.3622 | 1199.9 | 1430.2 | 3.207
303.15 K, x2 = 0.4808 | 1201.48 | 1452.7 | 3.408
303.15 K, x2 = 0.5814 | 1202.58 | 1469.7 | 3.576
303.15 K, x2 = 0.6862 | 1203.51 | 1484.7 | 3.749
303.15 K, x2 = 0.7938 | 1204.28 | 1498 | 3.925
303.15 K, x2 = 0.8902 | 1204.84 | 1508.2 | 4.081
308.15 K, x2 = 0 | 1186.63 | 1328.5 | 2.259
308.15 K, x2 = 0.0844 | 1189.08 | 1351.3 | 2.402
308.15 K, x2 = 0.1759 | 1191.33 | 1374.1 | 2.553
308.15 K, x2 = 0.2675 | 1193.26 | 1395.1 | 2.703
308.15 K, x2 = 0.3622 | 1194.92 | 1415 | 2.855
308.15 K, x2 = 0.4808 | 1196.62 | 1437.1 | 3.045
308.15 K, x2 = 0.5814 | 1197.79 | 1454 | 3.203
308.15 K, x2 = 0.6862 | 1198.8 | 1469.2 | 3.367
308.15 K, x2 = 0.7938 | 1199.65 | 1482.5 | 3.532
308.15 K, x2 = 0.8902 | 1200.24 | 1492.7 | 3.679
313.15 K, x2 = 0 | 1178.05 | 1315.5 | 1.852
313.15 K, x2 = 0.0844 | 1181.05 | 1337.6 | 1.995
313.15 K, x2 = 0.1759 | 1183.78 | 1359.6 | 2.147
313.15 K, x2 = 0.2675 | 1186.13 | 1379.6 | 2.296
313.15 K, x2 = 0.3622 | 1188.2 | 1398.4 | 2.448
313.15 K, x2 = 0.4808 | 1190.36 | 1419.6 | 2.636
313.15 K, x2 = 0.5814 | 1191.88 | 1435.7 | 2.795
313.15 K, x2 = 0.6862 | 1193.24 | 1450.5 | 2.958
313.15 K, x2 = 0.7938 | 1194.4 | 1463.3 | 3.123
313.15 K, x2 = 0.8902 | 1195.27 | 1472.8 | 3.269
318.15 K, x2 = 0 | 1170.87 | 1301.2 | 1.564
318.15 K, x2 = 0.0844 | 1173.91 | 1323.6 | 1.698
318.15 K, x2 = 0.1759 | 1176.26 | 1345.1 | 1.84
318.15 K, x2 = 0.2675 | 1178.79 | 1365.6 | 1.978
318.15 K, x2 = 0.3622 | 1181.24 | 1384.1 | 2.118
318.15 K, x2 = 0.4808 | 1184.01 | 1404.8 | 2.292
318.15 K, x2 = 0.5814 | 1185.85 | 1420.8 | 2.438
318.15 K, x2 = 0.6862 | 1187.52 | 1435.5 | 2.589
318.15 K, x2 = 0.7938 | 1189.32 | 1448.6 | 2.741
318.15 K, x2 = 0.8902 | 1190.2 | 1458 | 2.874
